{"source": "patent US12012615B2", "about": "“Method of making induced pluripotent stem cells using p53 inhibitors” (Kyoto University, priority 2008, dated 2024)", "key": {"p53 [1]": {"tested_on": "p53", "experiment": "p53 protein level by western blot after shRNA transduction", "assay_type": "cell-based, human", "conditions": "western blot six days after retroviral transduction", "protocol": "Retroviral vectors for p53 shRNA or control RNA were transduced into HDFs. Six days after the transduction, p53 protein levels were determined by western blot analyses.\n(B) In another experiment, we examined effects of shRNA against human p53 (shRNA2; Stewart S. A. et al. RNA 9(4), 493 (2003)). Retroviral vectors for shRNA expression, pMKO.1-puro (Addgene #8452), pMKO.1-puro p53 shRNA1 (Addgene #10671) and pMKO.1-puro p53 shRNA2 (Addgene #10672; shRNA sequence is shown in SEQ ID NO:28), were obtained from Addgene. Retroviruses for shRNAs, and the four or three reprogramming factors were produced in PLAT-E cells. For iPS cell generation, equal amounts of PLAT-E supematants containing each retrovirus were mixed and transduced to HDF."}, "HDF": {"tested_on": "HDF", "experiment": "DNA microarray gene expression, control HDF against p53 knockdown HDF", "assay_type": "cell-based, human", "description": "To elucidate p53 target genes that are responsible for the observed enhancement of iPS cell generation, we compared gene expression between p53 wild-type MEF and p53-null MEF by DNA microarrays, and between control HDF and p53 knockdown HDF. In MEF, 1590 genes increased and 1485 genes decreased >5 fold in p53-null MEF. In HDF, 290 genes increased and 430 genes decreased >5 fold by p53 shRNA. Between mouse and human, eight increased genes are common, including v-myb myeloblastosis viral oncogene homolog (MYB) and a RAS oncogenes family, RAB39B (Table 2)."}, "HDFs": {"tested_on": "HDFs", "experiment": "Human iPS cell generation with p53 shRNA co-transduction", "assay_type": "cell-based", "conditions": "co-introduced with the four reprogramming factors", "excerpt": "The retroviral vector expressing either p53 shRNA or control RNA was transduced into HDFs together with the four reprogramming factors. To rescue RNAi-mediated knockdown, a retroviral vector for mouse p53 was co-introduced."}, "p53 [2]": {"tested_on": "p53", "experiment": "Luciferase reporter driven by a p53-responsive element in HDF", "assay_type": "cell-based, human", "conditions": "luciferase activity two days after introduction", "description": "(§1) FIGS. 24A-24C show effects of p53 suppression on p21 and Myc. Genes regulated (4 increased and 7 decreased) by p53 suppression were introduced into HDFs together with the four reprogramming factors (FIG. 24A) or the four reprogramming factors and the p53 shRNA (FIG. 24B). On day 24 (FIG. 24A) or day 28 (FIG. 24B) post-transduction, numbers of iPS cell colonies were counted. **; p<0.01 compared to DsRed control (n=3). Luciferase reporters containing responsive elements of p53 or Myc, or that driven by the polymerase II promoter were introduced into HDFs, together with the mock retroviral vector, the p53 shRNA, the four reprogramming factors, or the three factors devoid of Myc. Two days later, luciferase activities were determined (c). **; p<0.01, *; p<0.05 compared to the mock control (n=3).\n(§2) The p21 protein binds to Myc and suppresses its transcriptional activity (Kitaura, H. et al., J Biol. Chem., 275(14), 10477-10483 (2000)). This might contribute to the increased efficiency of iPS cell generation by p53-p21 suppression. We evaluated the Myc activity in HDF by introducing luciferase reporters driven by either a p53-responsive element or a Myc responsive element (FIG. 24C). We confirmed the p53 activity was reduced by the shRNA. […] The effect was stronger than that observed with the introduction of the four factors including c-Myc."}, "Myc": {"tested_on": "Myc", "experiment": "Luciferase reporter driven by a Myc responsive element in HDF", "assay_type": "cell-based, human", "conditions": "luciferase activity two days after introduction", "description": "as §1, §2"}}, "data": [{"substance": "p53 shRNA2: shRNA against human p53, SEQ ID NO:28, retroviral vector pMKO.1-puro p53 shRNA2 (Addgene #10672) (GACTCCAGTGGTAATCTACTGCTCGAGCAGTAGATTACCACTGGAGTC)", "values": [{"measurement": "p53 protein level", "setting": "p53 [1]", "value": "effectively suppressed"}, {"measurement": "number of genes decreased >5 fold", "setting": "HDF", "value": 430, "unit": "genes"}, {"measurement": "number of genes increased >5 fold", "setting": "HDF", "value": 290, "unit": "genes"}, {"measurement": "numbers of human iPS cell colonies", "setting": "HDFs", "value": "markedly increased"}, {"measurement": "p53 activity (luciferase reporter)", "setting": "p53 [2]", "value": "reduced"}, {"measurement": "Myc activity (luciferase reporter)", "setting": "Myc", "value": "significantly enhanced"}]}]}
